# Source: patent US6492377B1, “Imidazotriazolopyrimidines with adenosine-antagonistic activity” (Boehringer Ingelheim Pharma KG, priority 1998, dated 2002)
# How the values were obtained:
# [1] = biological target: T1, human A1 adenosine Receptor (Homo sapiens, UniProt P30542); assay: KiA1 (human) receptor binding
# T1 sequence (P30542 1-326): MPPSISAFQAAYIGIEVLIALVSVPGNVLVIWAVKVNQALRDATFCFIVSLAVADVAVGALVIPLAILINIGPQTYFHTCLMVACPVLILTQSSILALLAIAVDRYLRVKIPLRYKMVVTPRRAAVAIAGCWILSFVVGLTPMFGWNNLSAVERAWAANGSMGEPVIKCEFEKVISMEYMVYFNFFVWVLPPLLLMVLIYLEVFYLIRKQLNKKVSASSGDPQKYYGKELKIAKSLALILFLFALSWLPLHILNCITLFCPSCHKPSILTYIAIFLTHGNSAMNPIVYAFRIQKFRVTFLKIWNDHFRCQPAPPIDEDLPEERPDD
# Experimental: The receptor binding values described hereinafter were determined analogously to Ensinger et al. in “Cloning and functional characterisation of human A1 adenosine Receptor—Biochemical and Biophysical Communications, Vol 187, No. 2, 919-926, 1992”.
# The Table which follows contains KiA1 (human) receptor binding values.
# [2] = biological target: T2, human A3-adenosine receptor (Homo sapiens, UniProt P0DMS8); assay: KiA3 (human) receptor binding
# T2 sequence (P0DMS8 1-318): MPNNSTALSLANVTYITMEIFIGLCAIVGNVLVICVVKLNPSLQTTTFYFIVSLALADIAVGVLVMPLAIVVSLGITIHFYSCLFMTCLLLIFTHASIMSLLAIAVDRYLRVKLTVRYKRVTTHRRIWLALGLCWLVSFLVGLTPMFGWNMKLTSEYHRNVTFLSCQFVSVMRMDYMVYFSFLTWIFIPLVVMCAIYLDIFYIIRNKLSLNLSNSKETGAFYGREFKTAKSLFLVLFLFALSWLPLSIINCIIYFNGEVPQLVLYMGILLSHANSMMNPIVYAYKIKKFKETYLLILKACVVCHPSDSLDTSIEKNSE
# Experimental: The A3 receptor binding values given hereinafter were determined analogously to […]. “Molecular cloning and characterization of the human A3-adenosine receptor” (Proc. Natl. Acad. Sci. USA 90, 10365-10369, 1993).
Substance,Ki [1] [nM],Ki [2] [nM]
4-Ethyl-2-(2-phenylethyl)-7-n-propyl-imidazo[4.5-e]-s-triazolo[1.5-a]pyrimidin-5-one [Example 83],8.1,
4-Ethyl-7-methyl-2-(2-phenylethyl)-imidazo[4.5-e]-s-triazolo[1.5-a]pyrimidin-5-one [Example 81],,7.2
